Assay results taken from patent US7273885B2, “Inhibitors of serine proteases, particularly HCV NS3-NS4A protease” (Vertex Pharmaceuticals Incorporated, priority 2002, dated 2007).
*1 amine or outer side, *2 acyl side, *3 side chain or, on linkers, in order; H or OH if unused. Where a SMILES comes first, the peptide text is derived from it. [ ]: non-standard residue; d: D form. The star is where a group is joined. Oic = O=C(O)[C@@H]1C[C@@H]2CCCC[C@@H]2N1; NH(1S-phenylethyl) = C[C@H](N*)c1ccccc1; X2 = CCC[C@H](N[*:1])C(=O)C(=O)[*:2]; X1 = CCCC(N[*:1])C(=O)C(=O)[*:2]; Chg = N[C@H](C(=O)O)C1CCCCC1; Tle = CC(C)(C)[C@H](N)C(=O)O; Hiv = CC(C)[C@H](O)C(=O)O; Dap = NC[C@H](N)C(=O)O; NHcPr = C1CC1N*; Moc = COC(=O)*

Key:
[1] = biological target: HCV NS3-NS4A protease (tNS3 with KK4A) (Hepatitis C virus genotype 1a, UniProt P27958); assay: HCV Ki assay (HPLC microbore separation of 5AB substrate and products); format: biochemical
Experimental: HPLC Microbore Method for Separation of 5AB Substrate and Products
• Substrate: • NH2-Glu-Asp-Val-Val-(alpha)Abu-Cys-Ser-Met-Ser-Tyr-COOH
A stock solution of 20 mM 5AB (or concentration of your choice) was made in DMSO w/ 0.2M DTT. This was stored in aliquots at −20 C.
Buffer: 50 mM HEPES, pH 7.8; 20% glycerol; 100 mM NaCl
Total assay volume was 100 μL
The buffer, KK4A, DTT, and tNS3 were combined; distributed 78 μL each into wells of 96 well plate. This was incubated at 30 C for ˜5–10 min.
2.5 μL of appropriate concentration of test compound was dissolved in DMSO (DMSO only for control) and added to each well. This was incubated at room temperature for 15 min.
Initiated reaction by addition of 20 μL of 250 μM 5AB substrate (25 μM concentration is equivalent or slightly lower than the Km for 5AB).
Incubated for 20 min at 30 C.
Terminated reaction by addition of 25 μL of 10% TFA
Transferred 120 μL aliquots to HPLC vials
Separated SMSY product from substrate and KK4A by the following method:
Microbore Separation Method:
Instrumentation: Agilent 1100
• Degasser G1322A • Binary pump G1312A • Autosampler G1313A • Column thermostated chamber G1316A • Diode array detector G1315A Column:
Phenomenex Jupiter; 5 micron C18; 300 angstroms; 150×2 mm; P/O 00F-4053-B0 • Column thermostat: 40 C • Injection volume: 100 μL • Solvent A=HPLC grade water+0.1% TFA • Solvent B=HPLC grade acetonitrile+0.1% TFA
• Stop time: 17 min • Post-run time: 10 min.

[2] = test system: Cells containing hepatitis C virus (HCV) replicon; assay: HCV replicon cell assay (Taqman RT-PCR of HCV RNA); format: cell-based; conditions: 50% inhibition of HCV RNA level, 48-hour incubation, HCV replicon cells, read-out: IC50
Experimental: HCV Replicon Cell Assay Protocol
Cells containing hepatitis C virus (HCV) replicon were maintained in DMEM containing 10% fetal bovine serum (FBS), 0.25 mg per ml of G418, with appropriate supplements (media A).
On day 1, replicon cell monolayer was treated with a trypsin:EDTA mixture, removed, and then media A was diluted into a final concentration of 100,000 cells per ml wit. 10,000 cells in 100 ul were plated into each well of a 96-well tissue culture plate, and cultured overnight in a tissue culture incubator at 37° C.
On day 2, compounds (in 100% DMSO) were serially diluted into DMEM containing 2% FBS, 0.5% DMSO, with appropriate supplements (media B). The final concentration of DMSO was maintained at 0.5% throughout the dilution series.
Media on the replicon cell monolayer was removed, and then media B containing various concentrations of compounds was added. Media B without any compound was added to other wells as no compound controls.
Cells were incubated with compound or 0.5% DMSO in media B for 48 hours in a tissue culture incubator at 37° C. At the end of the 48-hour incubation, the media was removed, and the replicon cell monolayer was washed once with PBS and stored at −80° C. prior to RNA extraction.
Culture plates with treated replicon cell monolayers were thawed, and a fixed amount of another RNA virus, such as Bovine Viral Diarrhea Virus (BVDV) was added to cells in each well. RNA extraction reagents (such as reagents from RNeasy kits) were added to the cells immediately to avoid degradation of RNA. Total RNA was extracted according the instruction of manufacturer with modification to improve extraction efficiency and consistency. Finally, total cellular RNA, including HCV replicon RNA, was eluted and stored at −80° C. until further processing.
A Taqman real-time RT-PCR quantification assay was set up with two sets of specific primers and probe. One was for HCV and the other was for BVDV. Total RNA extractants from treated HCV replicon cells was added to the PCR reactions for quantification of both HCV and BVDV RNA in the same PCR well. Experimental failure was flagged and rejected based on the level of BVDV RNA in each well. The level of HCV RNA in each well was calculated according to a standard curve run in the same PCR plate. The percentage of inhibition or decrease of HCV RNA level due to compound treatment was calculated using the DMSO or no compound control as 0% of inhibition. The IC50 (concentration at which 50% inhibition of HCV RNA level is observed) was calculated from the titration curve of any given compound.

HCV NS3-NS4A protease (tNS3 with KK4A), sequence (P27958 1027-1208): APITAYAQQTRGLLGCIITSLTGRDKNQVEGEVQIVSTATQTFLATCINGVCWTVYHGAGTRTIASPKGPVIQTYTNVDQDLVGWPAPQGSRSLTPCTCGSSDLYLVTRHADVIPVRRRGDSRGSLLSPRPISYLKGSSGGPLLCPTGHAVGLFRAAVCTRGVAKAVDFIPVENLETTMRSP

Compound	Ki [1] [µM]	IC50 [2] [µM]
CCC[C@H](NC(=O)[C@@H]1C[C@@H]2CCCC[C@@H]2N1C(=O)[C@@H](NC(=O)[C@@H](NC(=O)c1cnccn1)C1CCCCC1)C(C)(C)C)C(=O)C(=O)NC1CC1 [Compound 10a]	< 0.5	0.5 to 1
CCC[C@H](NC(=O)[C@@H]1C[C@@H]2CCCC[C@@H]2N1C(=O)[C@@H](NC(=O)[C@@H](NC(=O)c1ccncc1)C1CCCCC1)C(C)(C)C)C(=O)C(=O)NC1CC1 [Compound 32a]	< 0.5	1 to 5
CCC[C@H](NC(=O)[C@@H]1C[C@@H]2CCCC[C@@H]2N1C(=O)[C@@H](NC(=O)[C@@H](NC(=O)c1cc2cc(F)ccc2[nH]1)C1CCCCC1)C(C)(C)C)C(=O)C(=O)NC1CC1 [Compound 18a]	< 0.5	< 0.5
CCCC(NC(=O)[C@@H]1C[C@@H]2CCCC[C@@H]2N1C(=O)[C@@H](NC(=O)[C@@H](NC(=O)[C@H](CNC(=O)OC)NC(=O)OC)C1CCCCC1)C(C)(C)C)C(=O)C(=O)N[C@@H](C)c1ccccc1 (stereo partly drawn) [Compound 9a] (Moc-[Dap](Moc)[Chg][Tle][Oic][X1]-{NH(1S-phenylethyl)})	< 0.5	< 0.5
CCC[C@H](NC(=O)[C@@H]1C[C@@H]2CCCC[C@@H]2N1C(=O)[C@@H](NC(=O)[C@@H](NC(=O)c1cc([N+](=O)[O-])n[nH]1)C1CCCCC1)C(C)(C)C)C(=O)C(=O)NC1CC1 [Compound 14a]	< 0.5	1 to 5
CCC[C@H](NC(=O)[C@@H]1C[C@@H]2CCCC[C@@H]2N1C(=O)[C@@H](NC(=O)[C@@H](NC(=O)c1[nH]ncc1[N+](=O)[O-])C1CCCCC1)C(C)(C)C)C(=O)C(=O)NC1CC1 [Compound 13a]	< 0.5	0.5 to 1
CCC[C@H](NC(=O)[C@@H]1[C@@H](C2CCCCC2)CCN1C(=O)[C@@H](NC(=O)[C@@H](NC(=O)c1[nH]c(C)c(C)c1C(C)=O)C1CCCCC1)C(C)(C)C)C(=O)C(=O)NC1CC1 [Compound 63]	< 0.5	0.5 to 1
CCC[C@H](NC(=O)[C@@H]1C[C@@H]2CCCC[C@@H]2N1C(=O)[C@@H](NC(=O)[C@@H](NC(=O)[C@@H](O)C(C)C)C1CCCCC1)C(C)(C)C)C(=O)C(=O)NC1CC1 [Compound 23a] (H-[Hiv][Chg][Tle][Oic][X2]-NHcPr)	< 0.5	1 to 5
CCC[C@H](NC(=O)[C@@H]1C[C@@H]2CCCC[C@@H]2N1C(=O)[C@@H](NC(=O)[C@@H](NC(=O)c1ccccn1)C1CCCCC1)C(C)(C)C)C(=O)C(=O)NC1CC1 [Compound 30a]	0.5 to 1	1 to 5
CCC[C@H](NC(=O)[C@@H]1C[C@@H]2CCCC[C@@H]2N1C(=O)[C@@H](NC(=O)[C@@H](NC(=O)c1ccoc1)C1CCCCC1)C(C)(C)C)C(=O)C(=O)NC1CC1 [Compound 26a]	< 0.5	1 to 5
